Measurements reported in the NIST ThermoML archive (doi:10.1021/je800110r).

Conditions: 333.15 K, Liquid, Vibrating tube method

CCCCCCCCCC [decane]
Conditions | mass density [kg/m3]
19251 kPa | 716.4
19274 kPa | 716.4
19314 kPa | 716.5
19349 kPa | 716.6
19381 kPa | 716.6
19417 kPa | 716.4
19450 kPa | 716.6
19479 kPa | 716.6
19511 kPa | 716.6
19540 kPa | 716.7
19568 kPa | 716.7
19592 kPa | 716.6
19616 kPa | 716.7
19651 kPa | 716.8
19679 kPa | 716.8
19711 kPa | 716.7
19731 kPa | 716.7
19756 kPa | 716.9
19796 kPa | 716.8
19819 kPa | 716.8
19856 kPa | 716.9
19885 kPa | 717
19910 kPa | 716.9
19934 kPa | 717
19963 kPa | 717
19996 kPa | 716.9
20029 kPa | 717.1
20054 kPa | 717.2
20083 kPa | 717
20116 kPa | 717
20150 kPa | 717.1
20188 kPa | 717.1
20228 kPa | 717.3
20254 kPa | 717.2
20284 kPa | 717.3
20318 kPa | 717.2
20356 kPa | 717.3
20390 kPa | 717.3
20425 kPa | 717.4
20464 kPa | 717.3
20494 kPa | 717.3
20525 kPa | 717.4
20552 kPa | 717.5
20579 kPa | 717.5
20606 kPa | 717.4
20628 kPa | 717.4
20654 kPa | 717.5
20695 kPa | 717.6
20730 kPa | 717.5
20769 kPa | 717.6
20801 kPa | 717.6
20841 kPa | 717.6
20873 kPa | 717.7
20900 kPa | 717.7
20931 kPa | 717.7
20959 kPa | 717.8
20996 kPa | 717.7
21022 kPa | 717.8
21055 kPa | 717.8
21176 kPa | 717.9
21204 kPa | 717.9
21251 kPa | 717.9
21280 kPa | 718
21313 kPa | 718.1
21352 kPa | 718.1
21376 kPa | 718.1
21409 kPa | 718.2
21433 kPa | 718.1
21462 kPa | 718.2
21500 kPa | 718.2
21529 kPa | 718.2
21573 kPa | 718.3
21612 kPa | 718.4
21655 kPa | 718.3
21690 kPa | 718.4
21725 kPa | 718.4
21755 kPa | 718.4
21861 kPa | 718.6
21901 kPa | 718.5
21931 kPa | 718.6
21967 kPa | 718.6
22007 kPa | 718.5
22038 kPa | 718.6
22074 kPa | 718.7
22115 kPa | 718.7
22162 kPa | 718.7
22193 kPa | 718.8
22224 kPa | 718.8
22261 kPa | 718.8
22293 kPa | 718.8
22345 kPa | 718.9
22381 kPa | 718.9
22419 kPa | 719
22471 kPa | 719
22498 kPa | 718.9
22530 kPa | 719
22561 kPa | 719
22611 kPa | 719
22649 kPa | 719.1
22677 kPa | 719.1
22726 kPa | 719.1
22771 kPa | 719.2
22816 kPa | 719.2
22849 kPa | 719.4
22899 kPa | 719.3
22927 kPa | 719.4
22959 kPa | 719.3
23000 kPa | 719.3
23038 kPa | 719.5
23068 kPa | 719.3
23096 kPa | 719.5
23134 kPa | 719.6
23172 kPa | 719.5
23219 kPa | 719.5
23252 kPa | 719.6
23281 kPa | 719.5
23314 kPa | 719.6
23339 kPa | 719.7
23382 kPa | 719.7
23416 kPa | 719.8
23452 kPa | 719.7
23491 kPa | 719.8
23539 kPa | 719.9
23579 kPa | 719.7
23623 kPa | 719.9
23657 kPa | 719.9
23697 kPa | 719.9
23726 kPa | 719.9
23766 kPa | 720
23797 kPa | 720
23831 kPa | 719.9
23868 kPa | 720.1
23898 kPa | 720.1
23943 kPa | 720.1
23979 kPa | 720
24014 kPa | 720.1
24049 kPa | 720.1
24085 kPa | 720.1
24131 kPa | 720.3
24177 kPa | 720.3
24224 kPa | 720.2
24260 kPa | 720.2
24308 kPa | 720.3
24355 kPa | 720.4
24402 kPa | 720.5
24433 kPa | 720.5
24481 kPa | 720.5
24513 kPa | 720.5
24550 kPa | 720.5
24586 kPa | 720.6
24618 kPa | 720.6
24656 kPa | 720.6
24700 kPa | 720.6
24738 kPa | 720.7
24783 kPa | 720.8
24815 kPa | 720.9
24859 kPa | 720.8
24897 kPa | 720.9
24935 kPa | 720.9
24974 kPa | 720.7
25013 kPa | 721
25058 kPa | 720.9
25114 kPa | 721.1
25142 kPa | 721
25177 kPa | 721
25213 kPa | 721.1
25259 kPa | 721.1
25303 kPa | 721.2
26374 kPa | 721.9
26417 kPa | 722
26462 kPa | 722.1
26501 kPa | 722
27273 kPa | 722.7
27328 kPa | 722.6
27371 kPa | 722.6
27419 kPa | 722.6
29838 kPa | 724.5
29868 kPa | 724.5
29913 kPa | 724.5
29948 kPa | 724.6
29988 kPa | 724.7
30720 kPa | 725.2
30760 kPa | 725.2
30787 kPa | 725.3
30831 kPa | 725.2
30857 kPa | 725.2
30898 kPa | 725.3
30924 kPa | 725.4
30960 kPa | 725.2
31000 kPa | 725.3
31027 kPa | 725.4
31059 kPa | 725.4
31090 kPa | 725.4
31122 kPa | 725.4
31148 kPa | 725.4
31190 kPa | 725.5
31218 kPa | 725.5
31259 kPa | 725.6
31295 kPa | 725.5
31332 kPa | 725.6
31592 kPa | 725.8
31630 kPa | 725.8
31667 kPa | 725.7
31731 kPa | 725.9
31793 kPa | 725.9
31821 kPa | 725.9
31859 kPa | 726
31893 kPa | 725.9
31921 kPa | 726.1
31956 kPa | 726
31994 kPa | 726
32038 kPa | 726.1
32086 kPa | 726.1
32125 kPa | 726
32150 kPa | 726.2
32479 kPa | 726.4
32505 kPa | 726.4
32549 kPa | 726.4
32589 kPa | 726.4
32625 kPa | 726.4
32670 kPa | 726.7
32696 kPa | 726.6
32737 kPa | 726.6
32780 kPa | 726.6
32812 kPa | 726.5
32850 kPa | 726.6
32883 kPa | 726.6
32910 kPa | 726.7
32948 kPa | 726.7
32985 kPa | 726.7
33027 kPa | 726.8
33070 kPa | 726.8
33098 kPa | 726.9
33136 kPa | 726.8
33179 kPa | 726.8
33213 kPa | 727
33251 kPa | 726.8
33289 kPa | 726.9
33328 kPa | 726.9
33366 kPa | 727
33404 kPa | 727.1
33434 kPa | 727
33473 kPa | 727
33508 kPa | 727
33553 kPa | 727.1
33593 kPa | 727.3
33633 kPa | 727.1
33660 kPa | 727.2
33693 kPa | 727.3
33721 kPa | 727.3
33748 kPa | 727.3
33772 kPa | 727.2
33796 kPa | 727.3
33816 kPa | 727.4
33851 kPa | 727.3
33876 kPa | 727.5
33907 kPa | 727.3
33943 kPa | 727.5
33976 kPa | 727.5
34008 kPa | 727.4
34037 kPa | 727.5
34062 kPa | 727.6
34091 kPa | 727.5
34116 kPa | 727.6
34150 kPa | 727.6
34176 kPa | 727.6
34219 kPa | 727.7
34246 kPa | 727.7
34288 kPa | 727.7
34326 kPa | 727.7
34351 kPa | 727.7
34386 kPa | 727.8
34412 kPa | 727.8
34437 kPa | 727.7
